The results in this text go back to patent publication US11345700B2, “Methods of preparing inhibitors of influenza viruses replication” (priority 2013, dated 2022).

The test system of the assay is influenza A strains. In words: microbe, parasite or virus in culture. It counts as cell-based. Particulars: H3N2, MDCK, read-out: Cell Protection Assay EC50 ± SD, A/Texas/12/2007, H3N2, amantadine resistance (phenotypic), oseltamivir carboxylate resistance NA 119V.

Structures are written as SMILES.

As for `O=C(O)[C@H]1[C@H]2CC[C@H](CC2)[C@@H]1Nc1nc(-c2c[nH]c3ncc(F)cc23)ncc1F` [Compound (1)], the EC50 came to 0.65 ± 0.22 nM.
